Reference: patent US9242987B2, “Heterocyclyl pyrazolopyrimidine analogues as JAK inhibitors” (Cellzome Limited, priority 2009, dated 2016)

Columns and labels:
JAK2 = target: T1, JAK2 (Homo sapiens, UniProt O60674); test: Kinobeads assay, JAK2; format: binding; conditions: mixed Molt4/Ramos cell lysate, dot blot detection
T1 construct: endogenous in cells; host or cells: Mixed Molt4/Ramos lysate (1:2)
Outline: (§1)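 Lysate from Molt4 and Ramos cells combined 1:2 at 10 mg/mL total protein met test compound and an aminopyrido-pyrimidine affinity matrix for 3 h in the cold. Captured JAK2 and JAK3, after elution, were measured by specific-antibody dot blot on an infrared system; dose-response curves yielded IC50.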

JAK3 = target: T2, JAK3 (Homo sapiens, UniProt P52333); test: Kinobeads assay, JAK3; format: binding; conditions: mixed Molt4/Ramos cell lysate, dot blot detection
T2 construct: endogenous in cells; host or cells: Mixed Molt4/Ramos lysate (1:2)
T2 sequence (P52333 1-1124): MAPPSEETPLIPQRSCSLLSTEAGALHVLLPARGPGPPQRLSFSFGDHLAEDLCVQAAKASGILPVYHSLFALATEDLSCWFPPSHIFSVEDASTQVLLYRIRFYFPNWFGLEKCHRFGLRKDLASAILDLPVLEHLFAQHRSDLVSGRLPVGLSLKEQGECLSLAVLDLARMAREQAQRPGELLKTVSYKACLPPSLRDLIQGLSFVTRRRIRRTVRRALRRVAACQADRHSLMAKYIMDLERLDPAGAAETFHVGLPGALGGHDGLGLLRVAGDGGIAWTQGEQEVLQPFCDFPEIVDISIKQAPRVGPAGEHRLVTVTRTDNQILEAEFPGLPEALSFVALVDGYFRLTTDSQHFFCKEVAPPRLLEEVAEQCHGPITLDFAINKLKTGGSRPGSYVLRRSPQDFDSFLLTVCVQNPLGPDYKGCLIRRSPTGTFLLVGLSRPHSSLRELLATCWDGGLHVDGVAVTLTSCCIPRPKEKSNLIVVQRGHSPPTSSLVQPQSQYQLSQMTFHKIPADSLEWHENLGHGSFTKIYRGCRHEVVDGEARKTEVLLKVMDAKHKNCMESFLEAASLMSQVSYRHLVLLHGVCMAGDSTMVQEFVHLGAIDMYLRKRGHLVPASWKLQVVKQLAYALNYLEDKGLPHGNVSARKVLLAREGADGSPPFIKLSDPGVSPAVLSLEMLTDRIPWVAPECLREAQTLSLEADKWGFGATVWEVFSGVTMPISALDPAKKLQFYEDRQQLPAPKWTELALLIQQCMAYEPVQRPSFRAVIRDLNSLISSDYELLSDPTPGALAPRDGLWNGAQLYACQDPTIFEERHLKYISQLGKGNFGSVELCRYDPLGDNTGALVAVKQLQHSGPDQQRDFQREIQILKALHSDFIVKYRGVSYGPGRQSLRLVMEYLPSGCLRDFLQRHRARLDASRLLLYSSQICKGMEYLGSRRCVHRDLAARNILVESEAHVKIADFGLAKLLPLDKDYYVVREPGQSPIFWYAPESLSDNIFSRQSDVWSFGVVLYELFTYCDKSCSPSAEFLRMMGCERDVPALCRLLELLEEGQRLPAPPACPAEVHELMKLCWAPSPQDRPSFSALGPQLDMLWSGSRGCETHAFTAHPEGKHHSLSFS
Outline: as §1

T1 sequence (O60674 whole entry): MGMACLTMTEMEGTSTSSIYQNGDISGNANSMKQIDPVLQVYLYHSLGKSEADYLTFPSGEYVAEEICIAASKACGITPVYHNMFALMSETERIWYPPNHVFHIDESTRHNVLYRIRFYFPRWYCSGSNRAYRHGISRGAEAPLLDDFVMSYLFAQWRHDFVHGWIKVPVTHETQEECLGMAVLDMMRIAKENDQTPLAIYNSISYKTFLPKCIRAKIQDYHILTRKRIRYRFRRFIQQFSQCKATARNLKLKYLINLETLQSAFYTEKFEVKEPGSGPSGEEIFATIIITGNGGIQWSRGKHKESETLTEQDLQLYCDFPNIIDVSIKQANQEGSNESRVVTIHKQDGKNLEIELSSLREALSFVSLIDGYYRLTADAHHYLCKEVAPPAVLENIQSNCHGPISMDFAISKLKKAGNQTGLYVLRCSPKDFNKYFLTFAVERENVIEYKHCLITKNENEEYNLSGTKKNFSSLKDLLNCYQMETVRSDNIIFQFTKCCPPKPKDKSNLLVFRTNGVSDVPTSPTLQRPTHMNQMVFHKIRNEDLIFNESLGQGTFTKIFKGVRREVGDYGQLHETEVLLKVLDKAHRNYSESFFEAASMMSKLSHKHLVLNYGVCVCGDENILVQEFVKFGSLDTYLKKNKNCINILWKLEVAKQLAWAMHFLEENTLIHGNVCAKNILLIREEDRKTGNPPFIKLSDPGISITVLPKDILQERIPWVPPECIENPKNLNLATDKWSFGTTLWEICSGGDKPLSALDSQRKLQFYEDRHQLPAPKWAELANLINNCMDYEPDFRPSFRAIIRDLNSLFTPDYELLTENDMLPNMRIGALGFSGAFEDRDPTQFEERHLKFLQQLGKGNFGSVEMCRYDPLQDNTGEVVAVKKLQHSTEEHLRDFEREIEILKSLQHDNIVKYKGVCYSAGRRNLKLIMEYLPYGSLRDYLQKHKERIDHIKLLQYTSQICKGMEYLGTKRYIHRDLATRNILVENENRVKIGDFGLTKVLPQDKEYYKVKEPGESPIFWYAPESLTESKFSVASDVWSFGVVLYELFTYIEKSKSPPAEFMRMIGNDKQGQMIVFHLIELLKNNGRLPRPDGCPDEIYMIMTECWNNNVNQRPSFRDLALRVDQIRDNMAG

IC50 (JAK2) [µM]	IC50 (JAK3) [µM]	SMILES
1 to 10	< 0.1	OCCn1cc(Nc2ncc3cnn(Cc4c(F)ccc(N5CCNCC5)c4F)c3n2)cn1 [Example 304, 2-(4-((1-(2,6-Difluoro-3-(piperazin-1-yl)benzyl)-1H-pyrazolo[3,4-d]pyrimidin-6-yl)amino)-1H-pyrazol-1-yl)ethanol]
< 0.1	< 0.1	OCCn1cc(Nc2ncc3cnn(Cc4cc(F)ccc4F)c3n2)cn1 [Example 32, 2-(4-(1-(2,5-Difluorobenzyl)-1H-pyrazolo[3,4-d]pyrimidin-6-ylamino)-1H-pyrazol-1-yl)ethanol]
≥ 10	0.1 to 1	Cn1cc(Nc2ncc3cnn(Cc4ccccc4OCc4ccccc4)c3n2)cn1 [Example 114, 1-(2-(Benzyloxy)benzyl)-N-(1-methyl-1H-pyrazol-4-yl)-1H-pyrazolo[3,4-d]pyrimidin-6-amine]
1 to 10	0.1 to 1	Cc1cc(-n2ncc3cnc(Nc4cnn(C)c4)nc32)ccc1F [Example 60, 1-(4-fluoro-3-methylphenyl)-N-(1-methyl-1H-pyrazol-4-yl)-1H-pyrazolo[3,4-d]pyrimidin-6-amine]
0.1 to 1	< 0.1	Fc1ccccc1Cn1ncc2cnc(Nc3cnn(CCCN4CCCCC4)c3)nc21 [Example 144, 1-(2-Fluorobenzyl)-N-(1-(3-(piperidin-1-yl)propyl)-1H-pyrazol-4-yl)-1H-pyrazolo[3,4-d]pyrimidin-6-amine]
≥ 10	0.1 to 1	Cn1cc(Nc2ncc3cnn(-c4ccc(Cl)cc4)c3n2)cn1 [Example 57, 1-(4-Chlorophenyl)-N-(1-methyl-1H-pyrazol-4-yl)-1H-pyrazolo[3,4-d]pyrimidin-6-amine]
1 to 10	< 0.1	COCCn1cc(Nc2ncc3cnn(Cc4ccccc4F)c3n2)cn1 [Example 28, 1-(2-Fluorobenzyl)-N-(1-(2-methoxyethyl)-1H-pyrazol-4-yl)-1H-pyrazolo[3,4-d]pyrimidin-6-amine]
1 to 10	0.1 to 1	Cn1cc(Nc2ncc3cnn(CCc4ccccc4)c3n2)cn1 [Example 48, N-(1-Methyl-1H-pyrazol-4-yl)-1-phenethyl-1H-pyrazolo[3,4-d]pyrimidin-6-amine]
1 to 10	< 0.1	Cn1cc(Nc2ncc3cnn(Cc4cccc(C#N)c4F)c3n2)cn1 [Example 107, 2-Fluoro-3-((6-((1-methyl-1H-pyrazol-4-yl)amino)-1H-pyrazolo[3,4-d]pyrimidin-1-yl)methyl)benzonitrile]
0.1 to 1	< 0.1	CNC(=O)Cn1cc(Nc2ncc3cnn(Cc4ccccc4F)c3n2)cn1 [Example 290, 2-(4-((1-(2-Fluorobenzyl)-1H-pyrazolo[3,4-d]pyrimidin-6-yl)amino)-1H-pyrazol-1-yl)-N-methylacetamide]
≥ 10	< 0.1	COCCOc1cccc(Cn2ncc3cnc(Nc4cnn(C)c4)nc32)c1 [Example 132, 1-(3-(2-Methoxyethoxy)benzyl)-N-(1-methyl-1H-pyrazol-4-yl)-1H-pyrazolo[3,4-d]pyrimidin-6-amine]
≥ 10	0.1 to 1	Cc1nn(CC(F)F)cc1Nc1ncc2cnn(Cc3ccccc3)c2n1 [Example 120, 1-Benzyl-N-(1-(2,2-difluoroethyl)-3-methyl-1H-pyrazol-4-yl)-1H-pyrazolo[3,4-d]pyrimidin-6-amine]
1 to 10	< 0.1	Cn1cc(Nc2ncc3cnn(Cc4cccc(F)n4)c3n2)cn1 [Example 170, 1-((6-Fluoropyridin-2-yl)methyl)-N-(1-methyl-1H-pyrazol-4-yl)-1H-pyrazolo[3,4-d]pyrimidin-6-amine]
0.1 to 1	< 0.1	Cn1cc(Nc2ncc3cnn(Cc4cccc(F)c4)c3n2)cn1 [Example 67, 1-(3-Fluorobenzyl)-N-(1-methyl-1H-pyrazol-4-yl)-1H-pyrazolo[3,4-d]pyrimidin-6-amine]
0.1 to 1	0.1 to 1	CN(c1ccc(-n2ncc3cnc(Nc4cnn(C)c4)nc32)cc1)S(C)(=O)=O [Example 17, N-Methyl-N-(4-(6-(1-methyl-1H-pyrazol-4-ylamino)-1H-pyrazolo[3,4-d]pyrimidin-1-yl)phenyl)methanesulfonamide]
1 to 10	< 0.1	Cc1c(O)cccc1Cn1ncc2cnc(Nc3cnn(C)c3)nc21 [Example 179]
0.1 to 1	< 0.1	Cn1cc(Nc2ncc3cnn(Cc4c(F)cccc4Cl)c3n2)cn1 [Example 63, 1-(2-Chloro-6-fluorobenzyl)-N-(1-methyl-1H-pyrazol-4-yl)-1H-pyrazolo[3,4-d]pyrimidin-6-amine]
1 to 10	< 0.1	Cn1cc(Nc2ncc3cnn(Cc4cccc(C#N)c4)c3n2)cn1 [Example 68, 3-((6-((1-Methyl-1H-pyrazol-4-yl)amino)-1H-pyrazolo[3,4-d]pyrimidin-1-yl)methyl)benzonitrile]
1 to 10	< 0.1	COc1nn(CCO)cc1Nc1ncc2cnn(Cc3ccccc3C#N)c2n1 [Example 44, 2-((6-(1-(2-Hydroxyethyl)-3-methoxy-1H-pyrazol-4-ylamino)-1H-pyrazolo[3,4-d]pyrimidin-1-yl)methyl)benzonitrile]
1 to 10	0.1 to 1	Cn1cc(Nc2ncc3cnn(-c4ccc(S(N)(=O)=O)c(F)c4)c3n2)cn1 [Example 138, 2-Fluoro-4-(6-((1-methyl-1H-pyrazol-4-yl)amino)-1H-pyrazolo[3,4-d]pyrimidin-1-yl)benzenesulfonamide]
1 to 10	0.1 to 1	Cn1cc(Nc2ncc3cnn(-c4ccc(C(N)=O)cc4)c3n2)cn1 [Example 135, 4-(6-((1-Methyl-1H-pyrazol-4-yl)amino)-1H-pyrazolo[3,4-d]pyrimidin-1-yl)benzamide]
1 to 10	0.1 to 1	NC(=O)n1cc(Nc2ncc3cnn(Cc4ccccc4F)c3n2)cn1 [Example 103, 4-((1-(2-Fluorobenzyl)-1H-pyrazolo[3,4-d]pyrimidin-6-yl)amino)-1H-pyrazole-1-carboxamide]
1 to 10	< 0.1	Cn1cc(Nc2ncc3cnn(Cc4ccccc4C(N)=O)c3n2)cn1 [Example 16, 2-((6-(1-Methyl-1H-pyrazol-4-ylamino)-1H-pyrazolo[3,4-d]pyrimidin-1-yl)methyl)benzamide]
≥ 10	< 0.1	Cn1cc(Nc2ncc3cnn(Cc4cccc(C5=CCOCC5)c4)c3n2)cn1 [Example 218, 1-(3-(3,6-Dihydro-2H-pyran-4-yl)benzyl)-N-(1-methyl-1H-pyrazol-4-yl)-1H-pyrazolo[3,4-d]pyrimidin-6-amine]
1 to 10	< 0.1	COc1nn(CCO)cc1Nc1ncc2cnn(Cc3ccccc3F)c2n1 [Example 49, 2-(4-(1-(2-Fluorobenzyl)-1H-pyrazolo[3,4-d]pyrimidin-6-ylamino)-3-methoxy-1H-pyrazol-1-yl)ethanol]
1 to 10	< 0.1	Cc1c(F)cccc1Cn1ncc2cnc(Nc3cnn(C)c3)nc21 [Example 115, 1-(3-Fluoro-2-methylbenzyl)-N-(1-methyl-1H-pyrazol-4-yl)-1H-pyrazolo[3,4-d]pyrimidin-6-amine]
≥ 10	0.1 to 1	Cn1cc(Nc2ncc3cnn(Cc4cccc(-c5ccnc(N)c5)c4)c3n2)cn1 [Example 206, 1-(3-(2-Aminopyridin-4-yl)benzyl)-N-(1-methyl-1H-pyrazol-4-yl)-1H-pyrazolo[3,4-d]pyrimidin-6-amine]
